How the values were obtained:
SMMC-7721 [1] = experiment: Antiproliferative activity against human SMMC7721 cells assessed as reduction in cell growth at 2 uM incubated for 72 hrs by CCK-8 assay relative to control; type: functional; settings: SMMC-7721, 72 h
SMMC-7721 [2] = experiment: Induction of apoptosis in human SMMC7721 cells assessed as late apoptotic cells at 4 uM incubated for 48 hrs by Annexin-V-FITC/propidium iodide staining based flow cytometry (Rvb=1.73%); type: functional
SMMC-7721 [3] = experiment: Induction of apoptosis in human SMMC7721 cells assessed as late apoptotic cells at 1 uM incubated for 48 hrs by Annexin-V-FITC/propidium iodide staining based flow cytometry (Rvb=1.73%); type: functional
HeLa [4] = experiment: Antiproliferative activity against human HeLa cells assessed as reduction in cell growth incubated for 72 hrs by CCK-8 assay; type: functional, cell-based
SMMC-7721 [5] = experiment: Induction of apoptosis in human SMMC7721 cells assessed as necrotic cells at 0.25 uM incubated for 48 hrs by Annexin-V-FITC/propidium iodide staining based flow cytometry (Rvb=1.88%); type: functional
A-375 = experiment: Antiproliferative activity against human A375 cells assessed as reduction in cell growth incubated for 72 hrs by CCK-8 assay; type: functional, cell-based; settings: A-375, 72 h
SMMC-7721 [6] = experiment: Cell cycle arrest in human SMMC7721 cells assessed as accumulation at S phase at 1 uM incubated for 48 hrs by propidium iodide staining based flow cytometry (Rvb=6.83%); type: functional
HCT-116 [7] = experiment: Antiproliferative activity against human HCT116 cells assessed as reduction in cell growth incubated for 72 hrs by CCK-8 assay; type: functional, cell-based; settings: HCT-116, 72 h
SMMC-7721 [8] = experiment: Induction of apoptosis in human SMMC7721 cells assessed as early apoptotic cells at 1 uM incubated for 48 hrs by Annexin-V-FITC/propidium iodide staining based flow cytometry (Rvb=2.88%); type: functional
SMMC-7721 [9] = experiment: Induction of apoptosis in human SMMC7721 cells assessed as viable cells at 0.25 uM incubated for 48 hrs by Annexin-V-FITC/propidium iodide staining based flow cytometry (Rvb=93.5%); type: functional; settings: SMMC-7721, 48 h, read-out: Activity
Histone deacetylase = experiment: Inhibition of HDAC in human HeLa cell nuclear extract using fluor-de-lys-green as substrate preincubated for 10 mins followed by substrate addition and measured after 30 mins by fluorescence assay; type: cell-based
SMMC-7721 [10] = experiment: Cell cycle arrest in human SMMC7721 cells assessed as accumulation at G2/M phase at 1 uM incubated for 48 hrs by propidium iodide staining based flow cytometry (Rvb=16.17%); type: functional
SMMC-7721 [11] = experiment: Induction of apoptosis in human SMMC7721 cells assessed as viable cells at 4 uM incubated for 48 hrs by Annexin-V-FITC/propidium iodide staining based flow cytometry (Rvb=93.5%); type: functional; settings: SMMC-7721, 48 h, read-out: Activity
SMMC-7721 [12] = experiment: Induction of apoptosis in human SMMC7721 cells assessed as early apoptotic cells at 0.25 uM incubated for 48 hrs by Annexin-V-FITC/propidium iodide staining based flow cytometry (Rvb=2.88%); type: functional
A549 = experiment: Antiproliferative activity against human A549 cells assessed as reduction in cell growth at 8 uM incubated for 72 hrs by CCK-8 assay relative to control; type: functional; settings: A549, 72 h
SMMC-7721 [13] = experiment: Cell cycle arrest in human SMMC7721 cells assessed as accumulation at G2/M phase at 0.25 uM incubated for 48 hrs by propidium iodide staining based flow cytometry (Rvb=16.17%); type: functional
SMMC-7721 [14] = experiment: Cell cycle arrest in human SMMC7721 cells assessed as accumulation at G0/G1 phase at 4 uM incubated for 48 hrs by propidium iodide staining based flow cytometry (Rvb=77%); type: functional
SMMC-7721 [15] = experiment: Cell cycle arrest in human SMMC7721 cells assessed as accumulation at S phase at 4 uM incubated for 48 hrs by propidium iodide staining based flow cytometry (Rvb=6.83%); type: functional
SMMC-7721 [16] = experiment: Cell cycle arrest in human SMMC7721 cells assessed as accumulation at S phase at 0.25 uM incubated for 48 hrs by propidium iodide staining based flow cytometry (Rvb=6.83%); type: functional
SMMC-7721 [17] = experiment: Cell cycle arrest in human SMMC7721 cells assessed as accumulation at G0/G1 phase at 0.25 uM incubated for 48 hrs by propidium iodide staining based flow cytometry (Rvb=77%); type: functional
SMMC-7721 [18] = experiment: Cell cycle arrest in human SMMC7721 cells assessed as accumulation at S phase incubated for 48 hrs by propidium iodide staining-based flow cytometry; type: functional
HeLa [19] = experiment: Antiproliferative activity against human HeLa cells assessed as reduction in cell growth at 8 uM incubated for 72 hrs by CCK-8 assay relative to control; type: functional
HCT-116 [20] = experiment: Antiproliferative activity against human HCT116 cells assessed as reduction in cell growth at 8 uM incubated for 72 hrs by CCK-8 assay relative to control; type: functional; settings: HCT-116, 72 h
SMMC-7721 [21] = experiment: Cell cycle arrest in human SMMC7721 cells assessed as accumulation at G2/M phase at 4 uM incubated for 48 hrs by propidium iodide staining based flow cytometry (Rvb=16.17%); type: functional

Row | IC50 (HeLa [4]) | IC50 (A-375) | IC50 (HCT-116 [7]) | SMILES | inhibition at 2 µM (SMMC-7721 [1]) | Activity (SMMC-7721 [2]) | Activity (SMMC-7721 [3]) | Activity (SMMC-7721 [5]) | Activity (SMMC-7721 [6]) | Activity (SMMC-7721 [8]) | viability at 0.25 µM (SMMC-7721 [9]) | Activity (SMMC-7721 [10]) | viability at 4 µM (SMMC-7721 [11]) | Activity (SMMC-7721 [12]) | inhibition at 8 µM (A549) | Activity (SMMC-7721 [13]) | Activity (SMMC-7721 [14]) | Activity (SMMC-7721 [15]) | Activity (SMMC-7721 [16]) | Activity (SMMC-7721 [17]) | inhibition at 8 µM (HeLa [19]) | further results
1 | 1320 nM | 3510 nM | 2380 nM | COc1ccc2c(=O)n(-c3ccccc3Cl)c(SCc3ccc(C(=O)Nc4ccccc4N)cc3)nc2c1 | 50.4% | 20.4% | 19.1% | 2.7% | 28.44% | 7.67% | 68.3% | 37.07% | 65.8% | 15.9% | 80.6% | 31.29% | 27.52% | 45.18% | 19.96% | 48.75% | 82.7% | IC50 (Histone deacetylase): 0.83 µM; Activity (SMMC-7721 [18]): Dose-dependent effect; inhibition at 8 µM (HCT-116 [20]): 83.3%; Activity (SMMC-7721 [21]): 27.3%
2 | 3970 nM | 2840 nM | 1220 nM | Cn1c(SCc2ccc(C(=O)Nc3ccccc3N)cc2)nc2cc(Br)ccc2c1=O | 35.6% | 51.4% | 33.8% | 4.73% | 18.28% | 3.12% | 79.4% | 25.37% | 26.9% | 6.01% | 66.2% | 18.88% | 56.05% | 24.16% | 15.53% | 65.59% | 72.8% | IC50 (Histone deacetylase): 4.94 µM; Activity (SMMC-7721 [18]): Dose-dependent effect; inhibition at 8 µM (HCT-116 [20]): 88.4%; Activity (SMMC-7721 [21]): 19.19%
3 | 3410 nM | 940 nM | 1430 nM | CCn1c(SCc2ccc(/C=C/C(=O)Nc3ccccc3N)cc2)nc2cc(OC)ccc2c1=O | 56.8% | 38.2% | 28.8% | 4.51% | 16.13% | 16.4% | 79.3% | 33.16% | 41.3% | 6.55% | 78.2% | 17.67% | 53.62% | 28.7% | 20.75% | 61.58% | 70.8% | Activity (SMMC-7721 [18]): Dose-dependent effect; inhibition at 8 µM (HCT-116 [20]): 80.5%; Activity (SMMC-7721 [21]): 17.68%
4 | 1490 nM | 980 nM | 750 nM | COc1ccc2c(=O)n(C)c(SCc3ccc(C(=O)Nc4ccccc4N)cc3)nc2c1 | 68.8% | 54.8% | 45.4% | 5.77% | 19.34% | 11.6% | 66% | 22.56% | 21.7% | 9.27% | 82.8% | 11.67% | 46.09% | 22.52% | 22.23% | 67.11% | 87% | IC50 (Histone deacetylase): 0.99 µM; inhibition at 8 µM (HCT-116 [20]): 91.8%; Activity (SMMC-7721 [21]): 31.22%

Source: ChEMBL document CHEMBL4393680, “Design, synthesis and biological evaluation of novel thioquinazolinone-based 2-aminobenzamide derivatives as potent histone deacetylase (HDAC) inhibitors” (Eur J Med Chem, 2019)
